For 4 molecules, IC50 results are on record in ChEMBL document CHEMBL1125069, “Synthesis and antitumor activity of 2-beta-D-ribofuranosyloxazole-4-carboxamide (oxazofurin)” (J Med Chem, 1990).

Experiment [1] concerns B16. As to the kind of experiment: In vitro inhibitory activity against B16 murine melanoma cells. In kind it is functional, cell-based. The conditions noted are these: Mus musculus.
Experiment [2] has as its system P388. The experiment is described as follows: In vitro inhibitory activity against P388 murine lymphocytic leukemia cells; a = inactive until a maximum tested concentration of 4*(10e-3) M. In kind it is functional, cell-based, Mus musculus.
For experiment [3], the system named is HL-60. The experiment is described as follows: In vitro inhibitory activity against HL-60 human promyelocytic leukemia cells until a maximum concentration of 4*(10e-3) M; a = inactive until a maximum tested concentration of 4*(10e-3) M. In kind it is functional, cell-based.
In experiment [4] the test system is L1210. The experiment is described as follows: In vitro inhibitory activity against L1210 murine lymphocytic leukemia cells; a = inactive until a maximum tested concentration of 4*(10e-3) M. In kind it is functional, cell-based, Mus musculus.
For experiment [5], the system named is P388. As to the kind of experiment: In vitro inhibitory activity against P388 murine lymphocytic leukemia cells; b = inactive until a maximum tested concentration of 2.5(10e-4) M.
The test system of experiment [6] is L1210. As to the kind of experiment: In vitro inhibitory activity against L1210 murine lymphocytic leukemia cells; b = inactive until a maximum tested concentration of […]. In kind it is functional, cell-based, Mus musculus.
In experiment [7] the test system is HL-60. As to the kind of experiment: In vitro inhibitory activity against HL-60 human promyelocytic leukemia cells; b = inactive until a maximum tested concentration of […]. In kind it is functional, cell-based.
The test system of experiment [8] is B16. The experiment is described as follows: In vitro inhibitory activity against B16 murine melanoma cells; b = inactive until a maximum tested concentration of […]. In kind it is functional, cell-based, Mus musculus.
The test system of experiment [9] is P388. The experiment is described as follows: In vitro inhibitory activity against P388 murine lymphocytic leukemia cells. In kind it is functional, cell-based. The conditions noted are these: Mus musculus.
The test system of experiment [10] is HL-60. The experiment is described as follows: In vitro inhibitory activity against HL-60 human promyelocytic leukemia cells. In kind it is functional, cell-based.
Experiment [11] relates to L1210. As to the kind of experiment: In vitro inhibitory activity against L1210 murine lymphocytic leukemia cells. The conditions noted are these: Mus musculus. In kind it is functional, cell-based.

A word on the IC50: it is the concentration at which inhibition is half-maximal. Lower therefore signals inhibition by little substance.

For the molecule `NC(=O)c1coc([C@@H]2O[C@H](CO)[C@@H](O)[C@H]2O)n1`, the half-maximal inhibitory concentration (IC50) in the experiment on B16 [1] was 3020 µM; in the experiment with P388 [2], “Inactive until max test conc 4x10^-3M”; in the experiment on HL-60 [3], “Inactive until max test conc 4x10^-3M”; in the experiment with L1210 [4], “Inactive until max test conc 4x10^-3M”.

As to `NC(=O)c1nc(-c2ccc(CO)o2)oc1N`, the IC50 result in the experiment with P388 [5], with L1210 [6], in the experiment on HL-60 [7] and in the experiment with B16 [8] was “Inactive until max test conc 2.5x10^-4M” each time.

Regarding `NC(=O)c1coc(-c2ccc(CO)o2)n1`, the half-maximal inhibitory concentration (IC50) result in the experiment on P388 [5], in the experiment on L1210 [6], with HL-60 [7] and with B16 [8] was “Inactive until max test conc 2.5x10^-4M” each time.

Consider `NC(=O)c1csc([C@@H]2O[C@H](CO)[C@@H](O)[C@H]2O)n1` [TIAZOFURIN], for which the IC50 amounted to 16.2 µM in the experiment on B16 [1], 16.7 µM in the experiment on P388 [9], 6.1 µM in the experiment with HL-60 [10] and 6.2 µM with L1210 [11].
